In PubChem BioAssay (NCI):
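Five concentrations, 48 hours, 96-well plates. TGI: total growth inhibition.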

Columns and labels:
Assay in all cases: DTP human tumour cell line panel, 48 h
NCI-H522 lung = tested on: NCI-H522 lung
A549 NSCLC = tested on: A549 NSCLC
DU-145 prostate = tested on: DU-145 prostate
BT-549 breast = tested on: BT-549 breast
HOP-92 NSCLC = tested on: HOP-92 NSCLC
T-47D breast = tested on: T-47D breast
SF-295 CNS = tested on: SF-295 CNS
A498 renal = tested on: A498 renal
KM12 colon = tested on: KM12 colon
K-562 leukemia = tested on: K-562 leukemia
UO-31 renal = tested on: UO-31 renal
SF-539 CNS = tested on: SF-539 CNS
COLO 205 colon = tested on: COLO 205 colon
HCC-2998 colon = tested on: HCC-2998 colon
TK-10 renal = tested on: TK-10 renal
RPMI-8226 leukemia = tested on: RPMI-8226 leukemia
PC-3 prostate = tested on: PC-3 prostate
MOLT-4 leukemia = tested on: MOLT-4 leukemia
SR leukemia = tested on: SR leukemia
SF-268 CNS = tested on: SF-268 CNS

Structure (SMILES) | TGI (NCI-H522 lung) [µM] | TGI (A549 NSCLC) [µM] | TGI (DU-145 prostate) [µM] | TGI (BT-549 breast) [µM] | TGI (HOP-92 NSCLC) [µM] | TGI (T-47D breast) [µM] | TGI (SF-295 CNS) [µM] | TGI (A498 renal) [µM] | TGI (KM12 colon) [µM] | TGI (K-562 leukemia) [µM] | TGI (UO-31 renal) [µM] | TGI (SF-539 CNS) [µM] | TGI (COLO 205 colon) [µM] | TGI (HCC-2998 colon) [µM] | TGI (TK-10 renal) [µM] | TGI (RPMI-8226 leukemia) [µM] | TGI (PC-3 prostate) [µM] | TGI (MOLT-4 leukemia) [µM] | TGI (SR leukemia) [µM] | TGI (SF-268 CNS) [µM]
Cc1cccc(C(=O)O)c1CC1NCCC2c3ccccc3NC12 (stereo not given) | > 100 | > 100 | > 100 | > 100 | > 100 | > 100 | > 100 | > 100 | > 100 | > 100 | > 100 | > 100 | > 100 | > 100 | > 100 | > 100 | > 100 | > 100 | > 100 | > 100
O=S(=O)(/N=C(\NO)Nc1ccc(Cl)cc1)C1CC=C(c2ccon2)S1 (stereo not given) | 12.8 | > 100 | > 100 | > 63 | > 85.5 | > 100 | > 100 | > 75.9 | > 100 | > 100 | 81.6 | 16.9 | 35 | 50.4 | > 100 | > 50.3 | > 100 | > 51.3 | 19.8 | > 84.4
COC(=O)c1ccc(C)cc1CC1Cc2c(C)cccc2C1=O (stereo not given) | 22.8 | > 60.5 | > 81.9 | 21.1 | 46.8 | > 100 | > 52.8 | 24 | 16.1 | > 34.4 | 66.4 | 22.3 | 17 | 25.2 | > 54.6 | 30.3 | > 34.6 | > 47.2 | > 100 | 44.7
CNc1nc2c(C)ccc3[nH]c(N(C)C)nc3c-2n1 | > 100 | > 100 | > 100 | > 100 | > 100 | > 100 | > 100 | > 100 | > 100 | 45 | > 100 | 64.5 | > 100 | > 100 | > 100 | 61.2 | > 100 | > 100 | 97.9 | > 100
CCCCN1C(=O)CS/C1=N/Nc1nc2c([nH]1)c(=O)n(C)c(=O)n2C | > 100 | > 100 | > 100 | > 100 | > 100 | > 100 | 53.1 | > 100 | > 100 | > 100 | > 100 | > 100 | > 100 | > 100 | > 100 | > 100 | > 100 | 64.7 | 38.1 | > 100
C/C(=C1\C(=O)C(c2ccccc2)N(c2ccccc2)C1=O)c1ccc(Cl)cc1 (stereo not given) | 38.7 | 36.5 | 34 | 49.2 | 13.6 | 45.3 | 74.9 | 33.1 | 57.1 | > 100 | 45.8 | 48.9 | 32.8 | 96.1 | 52.5 | 38.1 | 28.2 | > 100 | 53.2 | 47
COc1ccc(-c2cc(-c3ccccc3)nc3c2CC(=O)Nc2ccccc2-3)cc1OC | > 100 | > 36.3 | > 100 | > 100 | > 100 | > 100 | > 100 | 50.5 | > 100 | > 100 | > 100 | > 46.1 | > 100 | > 100 | > 100 | > 100 | > 100 | > 100 | > 100 | > 100
CN(C)/C=C/c1c2c(nc3ccccc13)C(=O)c1ccccc1C2=O | 4.61 | 8.72 | 2.69 | 4.87 | 30 | 5.19 | 2.88 | 9.24 | 3.62 | > 100 | 7.2 | 5.4 | 5.5 | 5.17 | 6 | 3.49 | 3.77 | 6.32 | 3.09 | 5.26
C=CCn1c(-c2ccc(Cl)cc2Cl)csc1=Nc1c(C)n(C)n(-c2ccccc2)c1=O | 29.6 | 23.1 | 27.3 | 26.4 | 41.1 | 16.6 | 21.2 | 25.4 | 29.3 | 8.38 | 24.3 | 30.4 | 25.6 | 29.1 | 25.7 | > 46.3 | 20.6 | 18.6 | 21.9 | 33.4
CC(=O)OC1OC(c2ccoc2)C[C@@]12C1CCC3O[C@]3(C)[C@]1(C)C[C@H](OC(C)=O)[C@H]2C (stereo not given in full) | > 75 | > 75 | > 75 | > 75 | > 75 | > 75 | > 75 | > 75 | > 75 | > 75 | > 75 | > 75 | > 75 | > 75 | > 75 | > 75 | > 75 | > 75 | > 75 | > 75
CC1CC(C(=O)OC2OC(COC3OC(CO)C(OC4OC(C)C(O)C(O)C4O)C(O)C3O)C(O)C(O)C2O)C2CCC3(C)C(=CCC4(C)C3CCC3C(C)(CO)C(O)C(O)CC34C)C2C1C (stereo not given) | 30.1 | > 100 | > 100 | 32.3 | 34.6 | 35 | 82.8 | > 10 | 33.4 | > 100 | > 100 | 38 | 32.7 | 40.8 | > 100 | 49.2 | 84.6 | 41.4 | 41 | 37.8
CC(=O)OC1[C@@H](OC(C)=O)CN(OCc2ccccc2)C[C@H]1OC(C)=O (stereo not given in full) | > 100 | > 100 | > 100 | > 100 | > 100 | > 100 | > 100 | > 100 | > 100 | > 100 | > 100 | > 100 | > 100 | > 100 | > 100 | > 100 | > 100 | > 100 | > 100 | > 100
N#CCCN(CCC#N)c1ccc(C(N=Nc2ccc(Cl)cc2)=Nc2ccc(Cl)cc2)cc1 | 32.5 | 41 | 30.3 | 36.3 | 38.8 | 23.9 | 29.2 | 43.3 | 44.1 | > 100 | 29.4 | 38.6 | 31.9 | 27.1 | 33.5 | > 100 | 32.1 | 87.8 | > 100 | 33.4
O=c1c2c3c(sc2nc2n1N=C(c1ccc([N+](=O)[O-])cc1)CS2)CCCC3 | > 100 | > 100 | > 100 | > 100 | > 100 | > 100 | > 100 | > 100 | > 100 | > 100 | > 100 | > 100 | > 100 | > 100 | > 100 | > 100 | > 100 | > 100 | > 100 | > 100
CCOC(=O)N1N(c2ccccc2)C(=O)C1(c1ccccc1)c1ccccc1 | > 100 | > 100 | > 100 | > 100 | > 100 | > 100 | > 100 | > 100 | > 100 | > 100 | > 100 | > 100 | > 100 | > 100 | > 100 | 83.5 | > 100 | > 100 | > 100 | > 100
Oc1ccccc1-c1nn2c(CCCCCCCCc3nnc4sc(-c5ccccc5O)nn34)nnc2s1 | 82.5 | > 78 | > 75.5 | > 100 | > 100 | 52.1 | > 100 | > 89 | > 100 | > 100 | 48.5 | > 66.6 | > 100 | > 100 | > 100 | > 100 | > 100 | 51.1 | > 48.7 | > 100
